Test results reported in the NIST ThermoML archive (doi:10.1021/je400054m).
± gives the expanded uncertainty stated by the source.

Tests used:
[1] = DTA
[2] = Molar enthalpy of transition or fusion; conditions: DSC

SMILES | Normal melting temperature ([1]; Crystal) | Molar enthalpy of transition or fusion ([2]; Crystal) | Triple point temperature ([1]; Crystal 2) | Molar enthalpy of transition or fusion ([2]; Crystal 2) | Normal melting temperature ([1]; Crystal 1) | Triple point temperature ([1]; Crystal 3) | Molar enthalpy of transition or fusion ([2]; Crystal 1) | Molar enthalpy of transition or fusion ([2]; Crystal 3)
CC(=O)[O-].[Li+] [lithium acetate] | 283.10 ± 0.7 °C | 2.87 ± 0.186 kcal/mol | – | – | – | – | – | –
CCCC(=O)[O-].[Li+] [lithium butanoate] | 316.80 ± 0.7 °C | 4.96 ± 0.311 kcal/mol | – | – | – | – | – | –
CCCCCCCCCC(=O)[O-].[Li+] [lithium decanoate] | – | – | 309.65 ± 0.7 K | 0.111 ± 0.0287 kcal/mol | – | – | – | –
CCCCCCCCCCCC(=O)[O-].[Li+] [lithium dodecanoate] | – | – | 346.05 ± 0.7 K | 1.66 ± 0.112 kcal/mol | 227.40 ± 0.7 °C | 314.45 ± 0.7 K | 6.78 ± 0.43 kcal/mol | 0.138 ± 0.0335 kcal/mol
CCCCCCC(=O)[O-].[Li+] [lithium heptanoate] | – | – | 316.55 ± 0.7 K | 1.49 ± 0.1 kcal/mol | 274.40 ± 0.7 °C | – | 5.93 ± 0.382 kcal/mol | –
CCCCCC(=O)[O-].[Li+] [lithium hexanoate] | 287.20 ± 0.7 °C | 5.49 ± 0.359 kcal/mol | – | – | – | – | – | –
O=C[O-].[Li+] [lithium methanoate] | – | – | 508.55 ± 0.7 K | 0.451 ± 0.043 kcal/mol | 272.20 ± 0.7 °C | – | 3.84 ± 0.239 kcal/mol | –
CCCCCCCCC(=O)[O-].[Li+] [lithium nonanoate] | – | – | 348.95 ± 0.7 K | 1.92 ± 0.129 kcal/mol | 251.10 ± 0.7 °C | – | 6.13 ± 0.382 kcal/mol | –
CCCCCCCC(=O)[O-].[Li+] [lithium octanoate] | 264.30 ± 0.7 °C | 5.73 ± 0.359 kcal/mol | – | – | – | – | – | –
CCCCC(=O)[O-].[Li+] [lithium pentanoate] | – | – | 323.45 ± 0.7 K | 0.941 ± 0.0693 kcal/mol | 301.10 ± 0.7 °C | – | 5.25 ± 0.335 kcal/mol | –
CCCCCCCCCCC(=O)[O-].[Li+] [lithium undecanoate] | – | – | 364.55 ± 0.7 K | 3.3 ± 0.21 kcal/mol | 235.50 ± 0.7 °C | – | 6.76 ± 0.43 kcal/mol | –
CCC(=O)[O-].[Li+] [propionic acid, lithium salt] | – | – | 530.55 ± 0.7 K | 0.817 ± 0.0645 kcal/mol | 331.00 ± 0.7 °C | – | 3.81 ± 0.239 kcal/mol | –
